Key:
[1] = tested on: HAP1 MTAP-deleted cell line; assay: Viability assay, HAP1 MTAP-deleted cell line; assay type: cell-based; conditions: Homo sapiens; viability assay, HAP1 MTAP-deleted cell line; read-out: Hap1 MTAP deleted viability IC50
[2] = tested on: SDMA in HAP1 MTAP-deleted (MTAP-null) cell line (PRMT5 inhibition); assay: SDMA in-cell western assay, HAP1 MTAP-deleted cell line; conditions: for IC50 / IC90: Homo sapiens; for IC50: HAP1, read-out: Hap1 MTAP deleted IC50; for IC90: HAP1, read-out: Hap1 MTAP deleted IC90; for Hap1 MTAP intact/deleted ratio: ratio of SDMA IC50 in HAP1 MTAP-intact to HAP1 MTAP-deleted cell line
[3] = tested on: SDMA in HAP1 MTAP-intact cell line (PRMT5 inhibition); assay: SDMA in-cell western assay, HAP1 MTAP-intact cell line; conditions: Homo sapiens, HAP1, read-out: Hap1 MTAP intact IC50

Structure (SMILES)	IC50 [1] [µM]	IC50 [2] [µM]	IC90 [2] [µM]	Hap1 MTAP intact/deleted ratio [2]	IC50 [3] [µM]
C[C@@H](c1ccc(C(F)(F)F)cc1)N(C)C(=O)C(=O)Nc1cnc(N)c2c1cnn2C [Compound 79, N-(7-Amino-1-methyl-pyrazolo[3,4-c]pyridin-4-yl)-N′-methyl-N′—[(1S)-1-[4-(trifluoromethyl)phenyl]ethyl]oxamide]	0.1 to 1	0.005 to 0.05	> 0.125	A (IC50 ratio greater than or equal to 30 fold)	> 0.05
C[C@H](c1ccc(C(F)(F)C(F)(F)F)cc1)N(C)C(=O)C(=O)Nc1cnc(N)c2c1cnn2C [Compound 81, N-(7-Amino-1-methyl-pyrazolo[3,4-c]pyridin-4-yl)-N′-methyl-N′—[(1R)-1-[4-(1,1,2,2,2-pentafluoroethyl)phenyl]ethyl]oxamide]	< 0.1	< 0.005	< 0.075	A (IC50 ratio greater than or equal to 30 fold)	0.005 to 0.05
C[C@@H](c1ccc(C(F)(F)F)cc1F)N(C)C(=O)C(=O)Nc1cnc(N)c2c1cnn2C [Compound 82, N-(7-Amino-1-methyl-pyrazolo[3,4-c]pyridin-4-yl)-N′-methyl-N′—[(1S)-1-[2-fluoro-4-(trifluoromethyl)phenyl]ethyl]oxamide]	0.1 to 1	0.005 to 0.05	> 0.125	B (IC50 ratio greater than or equal to 15 fold but lower than 30 fold)	> 0.05
C[C@@H](c1ccc(C(F)(F)C(F)(F)F)cc1)N(C)C(=O)C(=O)Nc1cnc(N)c2c1cnn2C [Compound 83, N-(7-Amino-1-methyl-pyrazolo[3,4-c]pyridin-4-yl)-N′-methyl-N′—[(1S)-1-[4-(1,1,2,2,2-pentafluoroethyl)phenyl]ethyl]oxamide]	0.1 to 1	0.005 to 0.05	> 0.125	A (IC50 ratio greater than or equal to 30 fold)	> 0.05
C[C@H](c1ccc(C(F)(F)F)cc1F)N(C)C(=O)C(=O)Nc1cnc(N)c2c1cnn2C [Compound 84, N-(7-Amino-1-methyl-pyrazolo[3,4-c]pyridin-4-yl)-N′-methyl-N′—[(1R)-1-[2-fluoro-4-(trifluoromethyl)phenyl]ethyl]oxamide]	< 0.1	< 0.005	< 0.075	A (IC50 ratio greater than or equal to 30 fold)	0.005 to 0.05
Cc1cc(C(F)(F)F)cnc1CN(Cc1ncccn1)C(=O)C(=O)Nc1cnc(N)c2cn[nH]c12 [Compound 86, N-(4-amino-1H-pyrazolo[4,3-c]pyridin-7-yl)-N′-[[3-methyl-5-(trifluoromethyl)-2-pyridyl]methyl]-N′-(pyrimidin-2-ylmethyl)oxamide]	< 0.1	< 0.005	< 0.075	C (IC50 ratio of less than 15 fold)	0.005 to 0.05
Nc1ncc(NC(=O)C(=O)N(Cc2ccccc2)Cc2ccccc2Cl)c2[nH]ncc12 [Compound 87, N-(4-amino-1H-pyrazolo[4,3-c]pyridin-7-yl)-N′-benzyl-N′-[(2-chlorophenyl)methyl]oxamide]	< 0.1	< 0.005	< 0.075	B (IC50 ratio greater than or equal to 15 fold but lower than 30 fold)	0.005 to 0.05
Cc1cc(F)cnc1CN(Cc1ccc(F)cn1)C(=O)C(=O)Nc1cnc(N)c2cn[nH]c12 [Compound 88, N-(4-amino-1H-pyrazolo[4,3-c]pyridin-7-yl)-N′-[(5-fluoro-3-methyl-2-pyridyl)methyl]-N′-[(5-fluoro-2-pyridyl)methyl]oxamide]	< 0.1	< 0.005	< 0.075	B (IC50 ratio greater than or equal to 15 fold but lower than 30 fold)	0.005 to 0.05
Nc1ncc(NC(=O)C(=O)N(Cc2ccccn2)Cc2ccccn2)c2[nH]ncc12 [Compound 89, N-(4-amino-1H-pyrazolo[4,3-c]pyridin-7-yl)-N′,N′-bis(2-pyridylmethyl)oxamide]	< 0.1	< 0.005	< 0.075	A (IC50 ratio greater than or equal to 30 fold)	> 0.05
Cc1ccccc1CN(Cc1ccccc1)C(=O)C(=O)Nc1cnc(C)c2cn[nH]c12 [Compound 90]	0.1 to 1	< 0.005	> 0.125	A (IC50 ratio greater than or equal to 30 fold)	> 0.05
Nc1ncc(NC(=O)C(=O)N(Cc2ccccn2)Cc2cccc(Cl)c2Cl)c2[nH]ncc12 [Compound 91, N-(4-amino-2H-pyrazolo[4,3-c]pyridin-7-yl)-N′—[(2,3-dichlorophenyl)methyl]-N′-(2-pyridylmethyl)oxamide]	< 0.1	< 0.005	< 0.075	C (IC50 ratio of less than 15 fold)	< 0.005
Nc1ncc(NC(=O)C(=O)N(Cc2ccccn2)Cc2cccc3c2CCCO3)c2[nH]ncc12 [Compound 92, N-(4-amino-2H-pyrazolo[4,3-c]pyridin-7-yl)-N′-(chroman-5-ylmethyl)-N′-(2-pyridylmethyl)oxamide]	< 0.1	< 0.005	< 0.075	C (IC50 ratio of less than 15 fold)	< 0.005
CNc1cccc(CN(Cc2ccccc2)C(=O)C(=O)Nc2cnc(N)c3cn[nH]c23)c1 [Compound 93, N-(4-amino-1H-pyrazolo[4,3-c]pyridin-7-yl)-N′-benzyl-N′-[[3-(methylamino)phenyl]methyl]oxamide]	< 0.1	< 0.005	< 0.075	B (IC50 ratio greater than or equal to 15 fold but lower than 30 fold)	0.005 to 0.05
CC(C)CN(Cc1ccccc1F)C(=O)C(=O)Nc1cnc(N)c2cn[nH]c12 [Compound 94, N-(4-amino-1H-pyrazolo[4,3-c]pyridin-7-yl)-N′-[(2-fluorophenyl)methyl]-N′-isobutyl-oxamide]	< 0.1	< 0.005	< 0.075	B (IC50 ratio greater than or equal to 15 fold but lower than 30 fold)	0.005 to 0.05
Nc1ncc(NC(=O)C(=O)N(Cc2ccccc2)Cc2ccccc2C(F)(F)F)c2[nH]ncc12 [Compound 95, N-(4-amino-1H-pyrazolo[4,3-c]pyridin-7-yl)-N′-benzyl-N′-[[2-(trifluoromethyl)phenyl]methyl]oxamide]	< 0.1	< 0.005	< 0.075	C (IC50 ratio of less than 15 fold)	< 0.005
CN(Cc1ccc(C(F)(F)F)cc1F)C(=O)C(=O)Nc1cnc(N)c2cn[nH]c12 [Compound 96, N-(4-Amino-1H-pyrazolo[4,3-c]pyridin-7-yl)-N′-[[2-fluoro-4-(trifluoromethyl)phenyl]methyl]-N′-methyl-oxamide]	0.1 to 1	0.005 to 0.05	> 0.125	A (IC50 ratio greater than or equal to 30 fold)	> 0.05
Nc1ncc(NC(=O)C(=O)N(Cc2ccccc2)C2CCOc3ccccc32)c2[nH]ncc12 (centres unmarked) [Compound 97, N-(4-Amino-1H-pyrazolo[4,3-c]pyridin-7-yl)-N′-benzyl-N′-chroman-4-yl-oxamide]	< 0.1	< 0.005	< 0.075	B (IC50 ratio greater than or equal to 15 fold but lower than 30 fold)	0.005 to 0.05
Cc1ccc(CN(Cc2ccccc2)C(=O)C(=O)Nc2cnc(N)c3cn[nH]c23)c(C)c1 [Compound 98, N-(4-amino-1H-pyrazolo[4,3-c]pyridin-7-yl)-N′-benzyl-N′—[(2,4-dimethylphenyl)methyl]oxamide]	< 0.1	< 0.005	< 0.075	B (IC50 ratio greater than or equal to 15 fold but lower than 30 fold)	0.005 to 0.05
CCN(Cc1ccc(C(F)(F)C(F)(F)F)cc1C)C(=O)C(=O)Nc1cnc(N)c2cn[nH]c12 [Compound 99]	< 0.1	< 0.005	< 0.075	A (IC50 ratio greater than or equal to 30 fold)	> 0.05
CC(C)CN(Cc1ccccc1)C(=O)C(=O)Nc1cnc(N)c2cn[nH]c12 [Compound 101, N-(4-amino-1H-pyrazolo[4,3-c]pyridin-7-yl)-N′-benzyl-N′-isobutyl-oxamide]	< 0.1	< 0.005	0.075 to 0.125	A (IC50 ratio greater than or equal to 30 fold)	> 0.05
Nc1ncc(NC(=O)C(=O)N(CCC(F)(F)F)Cc2ccccc2)c2[nH]ncc12 [Compound 102, N-(4-amino-1H-pyrazolo[4,3-c]pyridin-7-yl)-N′-benzyl-N′-(3,3,3-trifluoropropyl)oxamide]	0.1 to 1	0.005 to 0.05	> 0.125	A (IC50 ratio greater than or equal to 30 fold)	> 0.05
CCN(Cc1ccc(C(F)(F)F)cc1C)C(=O)C(=O)Nc1cnc(N)c2cn[nH]c12 [Compound 104, N-(4-Amino-1H-pyrazolo[4,3-c]pyridin-7-yl)-N′-ethyl-N′-[[2-methyl-4-(trifluoromethyl)phenyl]methyl]oxamide]	< 0.1	< 0.005	< 0.075	A (IC50 ratio greater than or equal to 30 fold)	> 0.05

Source: US20250136594A1 (Tango Therapeutics, Inc., priority 2022, published 2025)
